The target of series [1] is T1, mOct2 (Mus musculus, UniProt O70577).
T1 sequence (O70577 1-553): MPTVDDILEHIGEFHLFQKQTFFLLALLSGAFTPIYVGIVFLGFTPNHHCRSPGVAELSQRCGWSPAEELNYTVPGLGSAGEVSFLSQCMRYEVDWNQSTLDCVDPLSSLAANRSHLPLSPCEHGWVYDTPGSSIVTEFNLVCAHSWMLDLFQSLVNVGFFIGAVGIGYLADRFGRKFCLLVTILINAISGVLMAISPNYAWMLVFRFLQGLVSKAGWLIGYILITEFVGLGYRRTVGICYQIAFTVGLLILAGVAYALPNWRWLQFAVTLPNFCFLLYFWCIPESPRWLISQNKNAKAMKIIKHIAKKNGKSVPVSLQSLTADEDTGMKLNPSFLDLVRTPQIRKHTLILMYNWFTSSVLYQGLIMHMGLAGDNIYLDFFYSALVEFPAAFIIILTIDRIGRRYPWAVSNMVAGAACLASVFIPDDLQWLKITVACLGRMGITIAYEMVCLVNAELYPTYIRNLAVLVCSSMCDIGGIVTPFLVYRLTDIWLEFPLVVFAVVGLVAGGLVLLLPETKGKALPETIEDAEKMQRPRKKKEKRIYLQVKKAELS
Kind of series: Inhibition of mOct2-mediated 14C-metformin uptake in transfected HEK293 cells. It is filed as cell-based. On the set-up: expressed in transfected cells; host or cells: HEK293 (stably transfected). The procedure: (§1) The uptake assays were performed as previously described in 24-well plates. […] After incubation, the uptake was stopped by aspirating the reaction mixture and washing the cells three times with 0.4 mL ice-cold PBS buffer. Cells were then solubilized with 0.6 mL of 1 N NaOH, overnight. The whole content of each well (0.6 mL) was transferred to a scintillation vial (Perkin Elmer). The radio-labelled amount was determined by liquid scintillation counting.
(§2) All inhibition experiments were conducted on at least two separate days in triplicate.
(§3) For screening experiments, cis-inhibition was carried out in duplicate by measuring the uptake of the labeled probe substrate in the absence and presence of 10 µM or 100 µM of the respective pesticide or drug. […] Inhibitory effects in percent were calculated from net-uptake. […]

Series [2] deals with T2, hOCT2 (Homo sapiens, UniProt O15244).
T2 sequence (O15244 1-555): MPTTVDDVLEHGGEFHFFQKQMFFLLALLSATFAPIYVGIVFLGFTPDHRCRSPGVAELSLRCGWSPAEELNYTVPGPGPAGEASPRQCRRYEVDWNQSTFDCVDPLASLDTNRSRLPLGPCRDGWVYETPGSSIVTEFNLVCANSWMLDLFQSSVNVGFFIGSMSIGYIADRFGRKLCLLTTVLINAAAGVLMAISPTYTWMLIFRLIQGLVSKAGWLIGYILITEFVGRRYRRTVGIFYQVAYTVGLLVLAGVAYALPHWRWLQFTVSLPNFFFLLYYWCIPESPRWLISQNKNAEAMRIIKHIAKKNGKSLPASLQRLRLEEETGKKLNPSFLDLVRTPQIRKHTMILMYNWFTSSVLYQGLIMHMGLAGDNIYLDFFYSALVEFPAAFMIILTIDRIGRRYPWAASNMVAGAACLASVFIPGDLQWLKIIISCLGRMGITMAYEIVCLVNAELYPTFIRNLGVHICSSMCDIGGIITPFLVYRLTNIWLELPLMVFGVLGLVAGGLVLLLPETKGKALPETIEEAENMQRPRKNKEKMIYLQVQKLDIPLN
Kind of series: Inhibition of hOCT2-mediated 14C-metformin uptake in transfected HEK293 cells. The series is classed as cell-based. On the set-up: expressed in transfected cells; host or cells: HEK293 (stably transfected). Here is the method:
as §1, §2, §3

In the next series the test system is MATEs. Also on record: method as in ref 33 (Wittwer et al.). As to conditions: ref 33 (Wittwer et al.); read-out: IC50, MATEs-mediated ASP+ uptake; cited from earlier work.
The target in series [3] is T1, mOct2. The settings on record: MPP higher affinity than metformin. The procedure:
as §1
(§4) All experiments were conducted on two separate days in triplicate.
(§5) The cellular protein amounts were analyzed in parallel to the transport experiments by the Bradford method as previously described.
(§6) The Km and Vmax values were obtained using SigmaPlot version 13 by fitting the Michaelis–Menten equation V = Vmax*[S]/(Km + [S]), where V refers to the rate of substrate transport, Vmax refers to the maximum rate of substrate transport, [S] refers to the concentration of substrate, and Km is defined as the concentration of substrate at the half-maximal transport rate.

In series [4] the target is T2, hOCT2. The settings on record: MPP higher affinity than metformin. The procedure:
as §1, §4, §5, §6

The target in series [5] is T2, hOCT2. Kind of series: Inhibition of hOCT2-mediated 3H-MPP uptake in transfected HEK293 cells. The series is classed as cell-based. Also on record: expressed in transfected cells; host or cells: HEK293 (stably transfected). Here is the method:
(§7) With cDNA of hOCT2 (GeneBank: accession number: NM_003058.3) or mOct2 (NM_013667.2), stably overexpressing HEK293 cells were used for the experiments and empty vector-transfected HEK cells were used as control-HEK cells.
(§8) The uptake assays were performed as previously described in 24-well plates. Therefore, culture medium was aspirated, and each well was rinsed three times with 0.5 mL incubation buffer (HBSS supplemented with 20 mM HEPES, pH 7.4) and then incubated in 200 µL dosing solution containing ^3H-MPP or ^14C-metformin and the test compound. After incubation, the uptake was stopped by aspirating the reaction mixture and washing the cells three times with 0.4 mL ice-cold PBS buffer. Cells were then solubilized with 0.6 mL of 1 N NaOH, overnight. The whole content of each well (0.6 mL) was transferred to a scintillation vial (Perkin Elmer). The radio-labelled amount was determined by liquid scintillation counting.
(§9) […]. All inhibition experiments were conducted on at least two separate days in triplicate.
as §6

Series [6] has as its target T1, mOct2. Kind of series: Inhibition of mOct2-mediated 3H-MPP uptake in transfected HEK293 cells. It is filed as cell-based. Also on record: expressed in transfected cells; host or cells: HEK293 (stably transfected). Here is the method:
as §7, §8, §9, §6

In series [7] the target is T2, hOCT2. On the set-up: expressed in transfected cells; host or cells: HEK293 (stably transfected). The settings on record: read-out: IC50, MPP uptake in hOCT2-HEK293 cells; HEK293; ref 28 (Hayer-Zillgen et al. 2002); cited from earlier work.
The target in series [8] is T2, hOCT2. On the set-up: method as in PMID 9260930. The settings on record: OCT2-overexpressing oocytes (procainamid); read-out: IC50, hOCT2-mediated TEA uptake; cited from earlier work.
Series [9] in a line: Highest soluble concentration in assay buffer (determined visually). The series is classed as physicochemical. As to conditions: assay buffer (HBSS/HEPES), aqueous buffer, HBSS/HEPES pH 7.4.
Series [10] deals with T2, hOCT2. Also on record: expressed in transfected cells; host or cells: HEK293 (stably transfected). As to conditions: cited from earlier work.
Substrate in series [11]: C[n+]1ccc(-c2ccccc2)cc1
The series can be described thus: cells, lysate or membranes. As to conditions: other: substrate, metformin 2 min, MPP 1 min, 37 °C, pH 7.4.

Where [12] appears, read: HEK293; read-out: Inhibitory Effects (%) mOct2 10 µM Mean.
[13] abbreviates: HEK293; read-out: Inhibitory Effects (%) mOct2 100 µM Mean.
Where [14] appears, read: HEK293, 10 µM test compound; 1 µM [14C]metformin, 2 min, HEK293; negative = stimulation; read-out: Inhibitory Effects (%) hOCT2 10 µM Mean.
[15] abbreviates: HEK293, 100 µM test compound; 1 µM [14C]metformin, 2 min, HEK293; negative = stimulation; read-out: Inhibitory Effects (%) hOCT2 100 µM Mean.
The mark [16] stands for this setting: 10 µM test compound; 1 µM [14C]metformin, 2 min, HEK293; negative = stimulation.
[17] abbreviates: 100 µM test compound; 1 µM [14C]metformin, 2 min, HEK293; negative = stimulation.
Where [18] appears, read: up to 100 µM (highest soluble concentration).

Converted amounts (≈) assume the structure as drawn. “And” between values parts separate entries of the source, which are not always exact repeats. Equal values may be shown once. “Also recorded” adds a separate entry of the source. Read-outs that look alike come from different tables or passages of the source.

The term IC50 denotes the concentration at which inhibition is half-maximal. `CC(C)c1nc(CN(C)C(=O)N[C@H](C(=O)N[C@@H](Cc2ccccc2)C[C@H](O)[C@H](Cc2ccccc2)NC(=O)OCc2cncs2)C(C)C)cs1` [Ritonavir]: the inhibition at 10 µM at mOct2 [1] (setting [12]) was 1%; at hOCT2 [2] (setting [14]) it was -10%. Besides, the inhibition at 100 µM on mOct2 [1] (setting [13]) is -8%; on hOCT2 [2] (setting [15]), -38%. The IC50 in the series on MATEs is 4.4 µM.
Turning to `C[n+]1ccc(-c2ccccc2)cc1.[I-]` [MPP, 1-Methyl-4-phenylpyridinium iodide], the “Fold difference in affinity (Km) of mOct2 between MPP and metformin” value at mOct2 [3] is 89 fold. The “Fold difference in affinity (Km) of hOCT2 between MPP and metformin” value on hOCT2 [4] is given as 64 fold.
With `CCN1/C(=C/c2ccc3ccccc3[n+]2CC)C=Cc2ccccc21.[I-]` [Decynium22], the “Fold higher IC50 for hOCT2 than for mOct2” value at hOCT2 [5] (MPP as substrate) was 2 fold and 2.3 fold. Besides, the IC50 was 16 µM on hOCT2 [5] (read-out: IC50, hOCT2-mediated MPP uptake, control inhibitor, MPP at its Km, 0.1-100 µM inhibitor); 2.6 µM at mOct2 [1] (read-out: IC50, mOct2-mediated metformin uptake; control inhibitor; 350 µM metformin; 0.1-100 µM inhibitor); 2.2 µM on hOCT2 [2] (read-out: IC50, hOCT2-mediated metformin uptake; control inhibitor; 350 µM metformin; 0.1-100 µM inhibitor); 6.9 µM at mOct2 [6] (read-out: IC50, mOct2-mediated MPP uptake, control inhibitor, MPP at its Km, 0.1-100 µM inhibitor); 1.3 µM at hOCT2 [7]; 0.1 µM on hOCT2 [8]. Also, the “Fold higher inhibitory potential on metformin uptake compared to MPP uptake, mOct2” value on mOct2 [1] was 2.7 fold. The “Inhibitory Effects (%) mOct2 10 µM Mean” value at mOct2 [1] (setting [16]) was determined as 72%. Further, the “Inhibitory Effects (%) mOct2 100 µM Mean” value at mOct2 [1] (setting [17]) amounted to 97%. The “Fold higher inhibitory potential on metformin uptake compared to MPP uptake, hOCT2” value on hOCT2 [2] was 7.2 fold. Besides, the “Inhibitory Effects (%) hOCT2 10 µM Mean” value at hOCT2 [2] (setting [16]) is given as 67%. Also, the “Inhibitory Effects (%) hOCT2 100 µM Mean” value at hOCT2 [2] (setting [17]) is reported as 96%.
One may read the solubility as how much of the substance goes into solution per volume. Low values mean little dissolved substance, high ones much dissolved substance. For the molecule `COc1cc2c(cc1OC)CN(CCc1ccc(NC(=O)c3cccc4c(=O)c5cccc(OC)c5[nH]c34)cc1)CC2` [Elacridar], the “IC50, hOCT2-mediated MPP uptake” value against hOCT2 [5] (2 nM [3H]MPP) is “no IC50 value could be determined; also recorded: calculation of an IC50 value was not possible”. For the same molecule, on hOCT2 [5] (setting [18]), the “Maximum inhibition of hOCT2-mediated MPP uptake” value was not above 60%. Also, the values for the IC50 against mOct2 [1] and at hOCT2 [2] were 1.9 µM and 20 µM, respectively. The values for the inhibition at 10 µM on mOct2 [1] (setting [12]) and at hOCT2 [2] (HEK293; read-out: Inhibitory Effects (%) hOCT2 10 µM Mean) were 56% and 25%, respectively. Also, the inhibition at 100 µM on mOct2 [1] (setting [13]) is 81%; on hOCT2 [2] (HEK293; read-out: Inhibitory Effects (%) hOCT2 100 µM Mean) it was 65%. In addition, at mOct2 [1] (metformin as substrate), the “Fold higher inhibitory potency to mouse than to human OCT2 (IC50 ratio)” value is 10 fold. For the same molecule, at mOct2 [6] (2 nM [3H]MPP), the “IC50, mOct2-mediated MPP uptake” value is “no IC50 value could be determined; also recorded: calculation of an IC50 value was not possible”. For the same molecule, the “Maximum inhibition of mOct2-mediated MPP uptake” value on mOct2 [6] (setting [18]) is listed as not above 60%. In addition, in series [9], the concentration in solution (solubility) came to 100 µM (≈ 56.4 µg/mL).
With `C[n+]1ccc(-c2cc[n+](C)cc2)cc1` [Paraquat], the inhibition at 10 µM on mOct2 [1] (HEK293, read-out: Inhibitory Effects (%) mOct2 10 µM Mean) is -9%; on hOCT2 [2] (HEK293, read-out: Inhibitory Effects (%) hOCT2 10 µM Mean) it was -15%. Further, the inhibition at 100 µM is -48% at mOct2 [1] (HEK293, read-out: Inhibitory Effects (%) mOct2 100 µM Mean) and -52% on hOCT2 [2] (HEK293, read-out: Inhibitory Effects (%) hOCT2 100 µM Mean). Further, the Km on hOCT2 [10] (read-out: Km, concentration dependent uptake by human OCT2) was 114 µM.
Turning to `CNC(=C[N+](=O)[O-])NCCSCc1ccc(CN(C)C)o1` [Ranitidine], the results for the inhibition at 10 µM on mOct2 [1] (setting [12]) and on hOCT2 [2] (setting [14]) were -37% and -43%, respectively. Further, the inhibition at 100 µM is -16% on mOct2 [1] (setting [13]) and -33% on hOCT2 [2] (setting [15]). In addition, the Km at hOCT2 [10] (ref 36 (Tahara et al.), read-out: Km, substrate of hOCT2) is 65.2 µM.

B1: mOct2 (Mus musculus) (protein)
chain: T1 sequence (O70577 1-553)
For the molecule B1, the Km in series [11] is reported as 40 µM.

(Values after article PMC9780857 (International Journal of Molecular Sciences, 2022).)
